Experiments:
lambsquarters [1] = experiment: Test Example 5: herbicidal effect by foliage application, plastic box (Table 20, symbol O); type: in vivo, lambsquarters (Chenopodium album); details: foliage application, 320 g/ha
How it was run: (§1)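 Post-emergence foliar test in sterilized diluvial soil. Compound applied as water-diluted emulsion at a predetermined rate to 14-day-old plants; evaluation at three weeks.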

Italian ryegrass [2] = experiment: Test Example 4: herbicidal effect by soil treatment (Table 19, symbol K); type: in vivo, Italian ryegrass (Lolium multiflorum); details: amount of applied herbicide 320 g/ha
How it was run: (§2)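 Emulsion of test compound, water-diluted to predetermined amount, sprayed on soil after sowing (seed depth ~1.5 cm, sterilized diluvial soil). Greenhouse, 25–30° C. Effect graded at three weeks post-spray.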

lambsquarters [3] = experiment: Test Example 4: herbicidal effect by soil treatment (Table 19, symbol O); type: in vivo, lambsquarters (Chenopodium album); details: amount of applied herbicide 320 g/ha
How it was run: as §2

blackgrass [4] = experiment: Test Example 4: herbicidal effect by soil treatment (Table 19, symbol J); type: in vivo, blackgrass (Alopecurus myosuroides); details: amount of applied herbicide 320 g/ha
How it was run: as §2

chickweed [5] = experiment: Test Example 5: herbicidal effect by foliage application, plastic box (Table 20, symbol P); type: in vivo, common chickweed (Stellaria media); details: foliage application, 320 g/ha, evaluated three weeks after application
How it was run: as §1

Japanese bulrush = experiment: Test Example 1: herbicidal activity, application before weed generation under submerged conditions (Table 16, symbol B); type: in vivo, Japanese bulrush (Schoenoplectus juncoides)
How it was run: (§3)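 Submerged Wagner pots (alluvial soil, 4 cm water) sown with weed seeds and planted with 2.5-leaf rice seedlings; emulsifiable concentrate diluted in water applied to water surface on sowing day. Held in greenhouse at 25-30 °C; injury scored 0-5 by herbicidal rate after three weeks.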

redroot pigweed = experiment: Test Example 4: herbicidal effect by soil treatment (Table 19, symbol N); type: in vivo, redroot pigweed (Amaranthus retroflexus); details: amount of applied herbicide 320 g/ha
How it was run: as §2

velvetleaf [6] = experiment: Test Example 5: herbicidal effect by foliage application, plastic box (Table 20, symbol M); type: in vivo, velvetleaf (Abutilon theophrasti); details: foliage application, 320 g/ha
How it was run: as §1

wild oat [7] = experiment: Test Example 5: herbicidal effect by foliage application, plastic box (Table 20, symbol I); type: in vivo, wild oat (Avena fatua); details: foliage application, 320 g/ha
How it was run: as §1

velvetleaf [8] = experiment: Test Example 4: herbicidal effect by soil treatment (Table 19, symbol M); type: in vivo, velvetleaf (Abutilon theophrasti); details: amount of applied herbicide 320 g/ha
How it was run: as §2

Chinese sprangletop = experiment: Test Example 3: herbicidal effect by foliage application, Wagner pot (Table 18, symbol D); type: in vivo, chinese sprangletop (Leptochloa chinensis); details: amount of applied herbicide 320 g/ha
How it was run: (§4)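 Plants were sown in alluvial soil held under 0.1–0.5 cm standing water and grown 14 days in a greenhouse at 25–30 °C. An emulsifiable formulation, water-diluted to the set dose, was then sprayed onto the foliage, and effects were scored three weeks later using previously defined criteria.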

late watergrass = experiment: Test Example 1: herbicidal activity, application before weed generation under submerged conditions (Table 16, symbol A); type: in vivo, late watergrass (Echinochloa oryzicola)
How it was run: as §3

barnyard grass [9] = experiment: Test Example 3: herbicidal effect by foliage application, Wagner pot (Table 18, symbol H); type: in vivo, barnyard grass (Echinochloa crus-galli); details: amount of applied herbicide 320 g/ha
How it was run: as §4

southern crabgrass [10] = experiment: Test Example 4: herbicidal effect by soil treatment (Table 19, symbol F); type: in vivo, southern crabgrass (Digitaria ciliaris); details: amount of applied herbicide 320 g/ha
How it was run: as §2

barnyard grass [11] = experiment: Test Example 5: herbicidal effect by foliage application, plastic box (Table 20, symbol H); type: in vivo, barnyard grass (Echinochloa crus-galli); details: foliage application, 320 g/ha
How it was run: as §1

Italian ryegrass [12] = experiment: Test Example 5: herbicidal effect by foliage application, plastic box (Table 20, symbol K); type: in vivo, Italian ryegrass (Lolium multiflorum); details: foliage application, 320 g/ha
How it was run: as §1

windgrass [13] = experiment: Test Example 4: herbicidal effect by soil treatment (Table 19, symbol L); type: in vivo, windgrass (Apera spica-venti); details: amount of applied herbicide 320 g/ha
How it was run: as §2

persian speedwell [14] = experiment: Test Example 5: herbicidal effect by foliage application, plastic box (Table 20, symbol R); type: in vivo, Persian speedwell (Veronica persica); details: foliage application, 320 g/ha
How it was run: as §1

rice flat sedge = experiment: Test Example 3: herbicidal effect by foliage application, Wagner pot (Table 18, symbol E); type: in vivo, rice flat sedge (Cyperus iria); details: amount of applied herbicide 320 g/ha
How it was run: as §4

southern crabgrass [15] = experiment: Test Example 5: herbicidal effect by foliage application, plastic box (Table 20, symbol F); type: in vivo, southern crabgrass (Digitaria ciliaris); details: foliage application, 320 g/ha
How it was run: as §1

oval-leafed pondweed = experiment: Test Example 1: herbicidal activity, application before weed generation under submerged conditions (Table 16, symbol C); type: in vivo, oval-leafed pondweed (Monochoria vaginalis)
How it was run: as §3

wild oat [16] = experiment: Test Example 4: herbicidal effect by soil treatment (Table 19, symbol I); type: in vivo, wild oat (Avena fatua); details: amount of applied herbicide 320 g/ha
How it was run: as §2

windgrass [17] = experiment: Test Example 5: herbicidal effect by foliage application, plastic box (Table 20, symbol L); type: in vivo, windgrass (Apera spica-venti); details: foliage application, 320 g/ha
How it was run: as §1

green foxtail [18] = experiment: Test Example 4: herbicidal effect by soil treatment (Table 19, symbol G); type: in vivo, green foxtail (Setaria viridis); details: amount of applied herbicide 320 g/ha
How it was run: as §2

blackgrass [19] = experiment: Test Example 5: herbicidal effect by foliage application, plastic box (Table 20, symbol J); type: in vivo, blackgrass (Alopecurus myosuroides); details: foliage application, 320 g/ha
How it was run: as §1

chickweed [20] = experiment: Test Example 4: herbicidal effect by soil treatment (Table 19, symbol P); type: in vivo, common chickweed (Stellaria media); details: amount of applied herbicide 320 g/ha
How it was run: as §2

green foxtail [21] = experiment: Test Example 5: herbicidal effect by foliage application, plastic box (Table 20, symbol G); type: in vivo, green foxtail (Setaria viridis); details: foliage application, 320 g/ha
How it was run: as §1

persian speedwell [22] = experiment: Test Example 4: herbicidal effect by soil treatment (Table 19, symbol R); type: in vivo, Persian speedwell (Veronica persica); details: amount of applied herbicide 320 g/ha
How it was run: as §2

barnyard grass [23] = experiment: Test Example 4: herbicidal effect by soil treatment (Table 19, symbol H); type: in vivo, barnyard grass (Echinochloa crus-galli); details: amount of applied herbicide 320 g/ha
How it was run: as §2

[24] = evaluated three weeks after application
[25] = amount of applied herbicide 320 g/ha

CCCOc1ccc2sc(-c3ccc(F)cc3OC)c(-c3c(O)c(C)nn(C)c3=O)c2c1 [2-173]
herbicidal effect on O: lambsquarters (criteria 0-5) (lambsquarters [1]; [24]): 1 (Herbicidal rate of 5% or more and less than 20%)
K: Italian ryegrass, herbicidal effect rating (Italian ryegrass [2]): 0 (Herbicidal rate of 5% or less (almost no effect))
O: lambsquarters, herbicidal effect rating (lambsquarters [3]): 0 (Herbicidal rate of 5% or less (almost no effect))
J: blackgrass, herbicidal effect rating (blackgrass [4]): 0 (Herbicidal rate of 5% or less (almost no effect))
herbicidal effect on P: chickweed (criteria 0-5) (chickweed [5]): 5 (Herbicidal rate of 90% or more (almost completely withered))
Herbicidal effect on B: Japanese bulrush (grade 0-5) (Japanese bulrush; 320 g/ha applied herbicide): 0 (Herbicidal rate of 5% or less (almost no effect))
N: redroot pigweed, herbicidal effect rating (redroot pigweed): 0 (Herbicidal rate of 5% or less (almost no effect))
herbicidal effect on M: velvetleaf (criteria 0-5) (velvetleaf [6]; [24]): 0 (Herbicidal rate of 5% or less (almost no effect))
herbicidal effect on I: wild oat (criteria 0-5) (wild oat [7]; [24]): 0 (Herbicidal rate of 5% or less (almost no effect))
M: velvetleaf, herbicidal effect rating (velvetleaf [8]): 0 (Herbicidal rate of 5% or less (almost no effect))
herbicidal effect on D: Chinese sprangletop (Chinese sprangletop): 2 (Herbicidal rate of 20% or more and less than 40%)
Herbicidal effect on A: late watergrass (grade 0-5) (late watergrass; 320 g/ha applied herbicide): 2 (Herbicidal rate of 20% or more and less than 40%)
herbicidal effect on H: barnyard grass (barnyard grass [9]): 3 (Herbicidal rate of 40% or more and less than 70%)
F: southern crabgrass, herbicidal effect rating (southern crabgrass [10]): 0 (Herbicidal rate of 5% or less (almost no effect))
herbicidal effect on H: barnyard grass (criteria 0-5) (barnyard grass [11]; [24]): 0 (Herbicidal rate of 5% or less (almost no effect))
herbicidal effect on K: Italian ryegrass (criteria 0-5) (Italian ryegrass [12]; [24]): 0 (Herbicidal rate of 5% or less (almost no effect))
L: windgrass, herbicidal effect rating (windgrass [13]): 0 (Herbicidal rate of 5% or less (almost no effect))
herbicidal effect on R: persian speedwell (criteria 0-5) (persian speedwell [14]; [24]): 5 (Herbicidal rate of 90% or more (almost completely withered))
herbicidal effect on E: rice flat sedge (rice flat sedge): 2 (Herbicidal rate of 20% or more and less than 40%)
herbicidal effect on F: southern crabgrass (criteria 0-5) (southern crabgrass [15]; [24]): 0 (Herbicidal rate of 5% or less (almost no effect))
Herbicidal effect on C: oval-leafed pondweed (grade 0-5) (oval-leafed pondweed; 320 g/ha applied herbicide): 0 (Herbicidal rate of 5% or less (almost no effect))
I: wild oat, herbicidal effect rating (wild oat [16]): 0 (Herbicidal rate of 5% or less (almost no effect))
herbicidal effect on L: windgrass (criteria 0-5) (windgrass [17]; [24]): 4 (Herbicidal rate of 70% or more and less than 90%)
G: green foxtail, herbicidal effect rating (green foxtail [18]): 0 (Herbicidal rate of 5% or less (almost no effect))
herbicidal effect on J: blackgrass (criteria 0-5) (blackgrass [19]; [24]): 4 (Herbicidal rate of 70% or more and less than 90%)
P: chickweed, herbicidal effect rating (chickweed [20]): 3 (Herbicidal rate of 40% or more and less than 70%)
herbicidal effect on G: green foxtail (criteria 0-5) (green foxtail [21]; [24]): 0 (Herbicidal rate of 5% or less (almost no effect))
R: persian speedwell, herbicidal effect rating (persian speedwell [22]): 0 (Herbicidal rate of 5% or less (almost no effect))
H: barnyard grass, herbicidal effect rating (barnyard grass [23]): 0 (Herbicidal rate of 5% or less (almost no effect))

COc1ccccc1-c1oc2ccc(F)cc2c1-c1c(O)c(C)nn(C)c1=O [9-019]
herbicidal effect on lambsquarters (O) (lambsquarters [1]; three weeks after application): 0 (Herbicidal rate of 5% or less (almost no effect))
K: Italian ryegrass, herbicidal effect grade (Italian ryegrass [2]): 1 (Herbicidal rate of 5% or more and less than 20%)
O: lambsquarters, herbicidal effect grade (lambsquarters [3]): 1 (Herbicidal rate of 5% or more and less than 20%)
J: blackgrass, herbicidal effect grade (blackgrass [4]): 0 (Herbicidal rate of 5% or less (almost no effect))
Herbicidal effect, B: Japanese bulrush (Japanese bulrush; [25]): 0 (Herbicidal rate of 5% or less (almost no effect))
N: redroot pigweed, herbicidal effect grade (redroot pigweed): 2 (Herbicidal rate of 20% or more and less than 40%)
herbicidal effect on velvetleaf (M) (velvetleaf [6]; three weeks after application): 0 (Herbicidal rate of 5% or less (almost no effect))
herbicidal effect on wild oat (I) (wild oat [7]; three weeks after application): 0 (Herbicidal rate of 5% or less (almost no effect))
M: velvetleaf, herbicidal effect grade (velvetleaf [8]): 0 (Herbicidal rate of 5% or less (almost no effect))
Herbicidal effect on D (Chinese sprangletop), foliage application (Chinese sprangletop): 4 (Herbicidal rate of 70% or more and less than 90%)
Herbicidal effect, A: late watergrass (late watergrass; [25]): 3 (Herbicidal rate of 40% or more and less than 70%)
Herbicidal effect on H (barnyard grass), foliage application (barnyard grass [9]): 4 (Herbicidal rate of 70% or more and less than 90%)
F: southern crabgrass, herbicidal effect grade (southern crabgrass [10]): 0 (Herbicidal rate of 5% or less (almost no effect))
herbicidal effect on barnyard grass (H) (barnyard grass [11]; three weeks after application): 0 (Herbicidal rate of 5% or less (almost no effect))
herbicidal effect on Italian ryegrass (K) (Italian ryegrass [12]; three weeks after application): 0 (Herbicidal rate of 5% or less (almost no effect))
L: windgrass, herbicidal effect grade (windgrass [13]): 0 (Herbicidal rate of 5% or less (almost no effect))
herbicidal effect on persian speedwell (R) (persian speedwell [14]; three weeks after application): 4 (Herbicidal rate of 70% or more and less than 90%)
Herbicidal effect on E (rice flat sedge), foliage application (rice flat sedge): 4 (Herbicidal rate of 70% or more and less than 90%)
herbicidal effect on southern crabgrass (F) (southern crabgrass [15]; three weeks after application): 0 (Herbicidal rate of 5% or less (almost no effect))
Herbicidal effect, C: oval-leafed pondweed (oval-leafed pondweed; [25]): 0 (Herbicidal rate of 5% or less (almost no effect))
I: wild oat, herbicidal effect grade (wild oat [16]): 0 (Herbicidal rate of 5% or less (almost no effect))
herbicidal effect on windgrass (L) (windgrass [17]; three weeks after application): 0 (Herbicidal rate of 5% or less (almost no effect))
G: green foxtail, herbicidal effect grade (green foxtail [18]): 0 (Herbicidal rate of 5% or less (almost no effect))
herbicidal effect on blackgrass (J) (blackgrass [19]; three weeks after application): 0 (Herbicidal rate of 5% or less (almost no effect))
P: chickweed, herbicidal effect grade (chickweed [20]): 0 (Herbicidal rate of 5% or less (almost no effect))
herbicidal effect on green foxtail (G) (green foxtail [21]; three weeks after application): 0 (Herbicidal rate of 5% or less (almost no effect))
R: persian speedwell, herbicidal effect grade (persian speedwell [22]): 0 (Herbicidal rate of 5% or less (almost no effect))
H: barnyard grass, herbicidal effect grade (barnyard grass [23]): 0 (Herbicidal rate of 5% or less (almost no effect))

From patent US20230085307A1, “PYRIDAZINONE COMPOUND AND HERBICIDE” (NISSAN CHEMICAL CORPORATION, priority 2019, published 2023)
